Reference: patent US6890708B2, “Method for improving the quality of sperm for artificial insemination of animals” (priority 2000, dated 2005)

Tests used:
[1] = system: boar spermatozoa; assay: Sperm viability in vitro (motility, acrosome morphology), Example I; format: cell-based, pig
Method: Aliquots of 80 μl of the PMN suspension (see, PMN isolation and preparation of PMNs) in TM or TM-s, with either intact or inactivated complement, were transferred to a 96-well polystyrene microtest plate. To each well, 20 μl of sperm suspension (see, preparation of semen samples) was added and the microtest plate was placed in a humidified incubator at 38° C. with 5% CO2 in air. […] The samples were incubated with gentle swirling on a test plate shaker. After 15, 30, 45, 60 or 90 min., samples were quantitatively transferred into tubes containing an equal volume of 40 mg ml^−1 heparin (Sigma) in PBS. The heparin facilitates dissociation of agglutinated PMNs. The samples were thoroughly mixed, left for 15 min., and mixed again. Subsamples of 75 μl were fixed by addition of 25 μl of 2% (v/v) glutaraldehyde (Fluka, Brunschwig chemie, Amsterdam, The Netherlands) in PBS. “Blank” samples, i.e., sperm without PMNs (80 μl TM-s mixed with 20 μl sperm suspension), were incubated in parallel to monitor sperm survival during the treatment. “Reference” samples, i.e., frozen-thawed (killed) semen, were incubated in parallel with the PMNs as a reference for the phagocytotic activity of the PMNs. The frozen-thawed semen was taken from a large stock of semen from one ejaculate and washed 3 times in PBS prior to use.
For evaluation of phagocytosis, wet mounts of the fixed samples were examined with a combination of phase-contrast and fluorescence microscopy (Olympus BH2, Tokyo, Japan) at 400× magnification. The mounts enabled observation and counting of fluorescently labeled spermatozoa inside and outside the phagocytes. By focusing at different levels in the mount, spermatozoa that were located above or below the PMN could be distinguished from those that were phagocytosed. […] Two hundred spermatozoa were evaluated and classified as inside or outside the PMN (i.e., phagocytosed or not phagocytosed). The same fixed mounts were used to assess the acrosome morphology of the non-phagocytosed spermatozoa at the moment of fixation. One hundred cells were classified using phase-contrast microscopy at 400× magnification, as NAR (normal apical ridge), NAR' (slightly altered normal apical ridge), DAR (damaged apical ridge), MAR (missing apical ridge) and LAC (loose acrosomal cap), as described by Pursel et al. (Pursel V G, Schulman L L and Johnson L A, 1978, Distribution and morphology of fresh and frozen-thawed sperm in the reproductive tract of gilts after insemination Biology of Reproduction 19 69-76.)

[2] = system: boar spermatozoa; assay: as above; format: cell-based, pig; remark: listed apart in the source
[3] = Exp. 1, after adding active compound and pre-incubation 30 min. at 38° C.
[4] = Exp. 1, blank samples without PMN, phagocytosis time 60 min.
[5] = Exp. 1, blank samples without PMN, preincubated 30 min. at 38° C., phagocytosis time 30 min.
[6] = Exp. 2, 0.2 mM, after adding active compound, without pre-incubation
[7] = Exp. 2, 0.2 mM, blank samples without PMN, without pre-incubation, phagocytosis time 30 min.
[8] = Exp. 2, 0.5 mM, after adding active compound, after pre-incubation
[9] = Exp. 2, 0.5 mM, after adding active compound, without pre-incubation
[10] = Exp. 2, 0.5 mM, blank samples without PMN, after pre-incubation
[11] = Exp. 2, 0.5 mM, blank samples without PMN, without pre-incubation, phagocytosis time 30 min.
[12] = Exp. 2, 1 mM, after adding active compound, after pre-incubation
[13] = Exp. 2, 1 mM, after adding active compound, without pre-incubation
[14] = Exp. 2, 1 mM, blank samples without PMN, after pre-incubation
[15] = Exp. 2, 1 mM, blank samples without PMN, without pre-incubation, phagocytosis time 30 min.
[16] = Exp. 2, 2 mM, after adding active compound, after pre-incubation
[17] = Exp. 2, 2 mM, after adding active compound, without pre-incubation
[18] = Exp. 2, 2 mM, blank samples without PMN, after pre-incubation
[19] = Exp. 2, 2 mM, blank samples without PMN, without pre-incubation, phagocytosis time 30 min.
[20] = Exp. 3, 1 mM, after pre-incubation of sperm 30 min. at 38° C.
[21] = Exp. 3, 1 caffeine, blank samples without PMN, after pre-incubation at 38° C., phagocytosis time 30 min.

Cn1c(=O)c2c(ncn2C)n(C)c1=O [caffeine, 1,3,7-Trimethylxanthine]
% DAR [1, 3]: 30%
% LAC [1, 3]: 15%
% MAR [1, 3]: 02%
% NAR [1, 3]: 53%
% LAC [1, 4]: 22%
% MAR (second value of NAR-MAR-MAR-LAC) [1, 4]: 36%
% MAR (third value of NAR-MAR-MAR-LAC) [1, 4]: 05%
% NAR [1, 4]: 37%
% LAC [1, 5]: 21%
% MAR (second value of NAR-MAR-MAR-LAC) [1, 5]: 39%
% MAR (third value of NAR-MAR-MAR-LAC) [1, 5]: 03%
% NAR [1, 5]: 37%
% DAR [1, 6]: 12%
% LAC [1, 6]: 03%
% MAR [1, 6]: 01%
% motile sperm [1, 6]: 80%
% DAR [1, 7]: 12%
% LAC [1, 7]: 03%
% MAR [1, 7]: 00%
% NAR [1, 7]: 85%
% DAR [1, 8]: 14%
% LAC [1, 8]: 02%
% MAR [1, 8]: 01%
% NAR [1, 8]: 83%
% motile sperm [1, 8]: 80%
% DAR [1, 9]: 12%
% LAC [1, 9]: 02%
% MAR [1, 9]: 02%
% NAR [1, 9]: 84%
% motile sperm [1, 9]: 80%
% DAR [1, 10]: 12%
% LAC [1, 10]: 02%
% MAR [1, 10]: 01%
% NAR [1, 10]: 85%
% DAR [1, 11]: 10%
% LAC [1, 11]: 03%
% MAR [1, 11]: 00%
% NAR [1, 11]: 87%
% DAR [1, 12]: 16%
% LAC [1, 12]: 06%
% MAR [1, 12]: 01%
% NAR [1, 12]: 77%
% motile sperm [1, 12]: 80%
% DAR [1, 13]: 09%
% LAC [1, 13]: 03%
% MAR [1, 13]: 01%
% NAR [1, 13]: 87%
% motile sperm [1, 13]: 80%
% DAR [1, 14]: 21%
% LAC [1, 14]: 06%
% MAR [1, 14]: 01%
% NAR [1, 14]: 72%
% DAR [1, 15]: 10%
% LAC [1, 15]: 05%
% MAR [1, 15]: 00%
% NAR [1, 15]: 85%
% DAR [1, 16]: 20%
% LAC [1, 16]: 05%
% MAR [1, 16]: 02%
% NAR [1, 16]: 73%
% motile sperm [1, 16]: 80%
% DAR [1, 17]: 13%
% LAC [1, 17]: 04%
% MAR [1, 17]: 01%
% NAR [1, 17]: 82%
% motile sperm [1, 17]: 80%
% DAR [1, 18]: 24%
% LAC [1, 18]: 05%
% MAR [1, 18]: 01%
% NAR [1, 18]: 70%
% DAR [1, 19]: 12%
% LAC [1, 19]: 08%
% MAR [1, 19]: 01%
% NAR [1, 19]: 79%
% DAR [1, 20]: 24%
% LAC [1, 20]: 08%
% MAR [1, 20]: 01%
% NAR [1, 20]: 67%
% DAR [1, 21]: 24%
% LAC [1, 21]: 08%
% MAR [1, 21]: 02%
% NAR [1, 21]: 66%
% motile sperm [2, 3]: 60%
% NAR [2, 6]: 84%
% motile sperm [2, 20]: 65%
